Numbered stars: 1 amine (or outer) side, 2 acyl side, 3 side chain; on linkers, the order of the positions; unused ones are H or OH. Bridge positions count the residues as written; N and C are the ends. Square brackets hold non-standard residues; d marks the D form. Peptide text beside a SMILES is read from it. * marks the point of attachment. hTyr(3S-OH,4S-OH,3'-OSO3H) = N[C@H](C(=O)O)[C@H](O)[C@@H](O)c1ccc(O)c(OS(=O)(=O)O)c1; Orn(4R-OH,5R-OH) = O=C([C@H](C[C@@H](O)[C@@H](O)N[*:3])N[*:1])[*:2]; Pro(3S-OH,4S-Me) = C[C@H]1CN[C@H](C(=O)O)[C@H]1O; X1 = CCCCCOc1ccc(-c2cc(-c3ccc(C(=O)*)cc3)no2)cc1; Gln(3R-OH) = NC(=O)C[C@@H](O)[C@H](N)C(=O)O; Hyp = O=C(O)[C@@H]1C[C@@H](O)CN1

For series [1], the system named is Cryptococcus neoformans ATCC90112. As to the kind of experiment: In vivo test: murine systematic infection caused by Cryptococcus neoformans. Particulars: ICR mice, day 21 after infection, once daily, 7 times. The procedure: In vivo activity was evaluated in murine systematic infection caused by Cryptococcus neoformans.
(§1) Mice (4-week old (at infection) male ICR mice, 5 mice per group) were intraperitoneally administered 200 mg/kg of cyclophosphamide 4 days before infection and 100 mg/kg on the following day after infection. Cryptococcus neoformans ATCC90112 cells, which were prepared from overnight culture on a Sabouraud Dextrose Agar plate at 35° C., were suspended in sterile physiological saline solution. After counting cell number of the suspension with a biological microscope, the suspension was diluted with sterile physiological saline solution to give the inoculum solution. Systematic infection was induced in mice by intravenous injection of 0.2 mL of the inoculum solution into the tail vein (8.5×10^4 CFU/mouse).
The test compound was dissolved in a small amount of 0.1 mol/L hydrochloric acid, and the solution was diluted with sterilized water to prepare predetermined concentrations. […]
(§2) On one hand each of the agents was administered singly, on the other hand each of the agents was administered immediately after the test compound was administered. The efficacy was evaluated on the basis of the survival rate on day 21 after infection.

Series [2] relates to Candida albicans TIMM1623. In words: In vivo test: murine systemic infection caused by Candida albicans. Particulars: ICR mice, day 21 after infection, once daily, 7 times. The procedure:
In vivo activity was evaluated in murine systemic infection caused by Candida albicans.
as §1, with “Candida albicans TIMM1623,” for “Cryptococcus neoformans ATCC90112 cells,”, “Systemic” for “Systematic”, “inoculation” for “injection”, “(2.6×10^4” for “(8.5×10^4”
(§3) The test compound was dissolved in a small amount of 0.1 mol/L hydrochloric acid, and the solution was diluted with sterilized water to prepare predetermined concentrations.
Fluconazole (a commercial name: FLANOS intravenous drip solution 100 mg, made by Toyama Chemical Co., Ltd.) was diluted with sterilized water to prepare fluconazole solutions of predetermined concentrations.
Micafungin sodium (a commercial name: Funguard 50 mg for infusion, made by Astellas Pharma Inc.) was dissolved in sterile physiological saline solution to prepare micafungin solutions of predetermined concentrations.
Amphotericin B for injection (a commercial name: FUNGIZONE, made by Bristol pharmaceutical Ltd.) was dissolved in 5% glucose to prepare an amphotericin B solution of a predetermined concentration.
The test compound (0.25 and 0.5 mg/kg) and fluconazole (0.25 and 0.5 mg/kg) were orally administered. Micafungin (0.125 and 0.25 mg/kg) and amphotericin B (0.1 mg/kg) were subcutaneously administered. These administrations were conducted once 2 hours after the infection and then once daily for the following 6 days, totaling 7 times.
On one hand each of the agents was administered singly, on the other hand each of the agents was administered immediately after the test compound was administered.
The efficacy was evaluated on the basis of the survival rate on day 21 after infection.

For series [3], the system named is Aspergillus fumigatus IFM46895. In words: In vivo test: murine systemic infection caused by Aspergillus fumigatus. The settings on record: for Survival rate: ICR mice, day 21 after infection, once daily, 7 times. The procedure: In vivo activity was evaluated in murine systemic infection caused by Aspergillus fumigatus.
Mice (4-week old (at infection) male ICR mice, 5 mice per group) were intraperitoneally administered 200 mg/kg of cyclophosphamide 4 days before infection and 100 mg/kg on the following day after infection. Conidia suspension of Aspergillus fumigatus IFM46895 was diluted with sterile physiological saline solution containing 0.05% Tween 80 (manufactured by Difco Laboratories) in sterile physiological saline solution to give the inoculum solution. Systemic infection was induced in mice by intravenous inoculation of 0.2 mL of the inoculum solution into the tail vein (1.6×10^5 CFU/mouse).
as §3
Flucytosine (made by Sigma Company) was suspended in 0.5% methyl cellulose liquid to prepare predetermined concentrations for administration.
Voriconazole (a commercial name: Vfend 200 mg for intravenous use, made by Pfizer Inc.) was diluted with sterilized water to prepare voriconazole solutions of predetermined concentrations for administration.
The test compound (1 and 3 mg/kg), flucytosine (50 and 250 mg/kg) and voriconazole (5 and 10 mg/kg) were orally administered. The administrations were conducted once 2 hours after the infection and then once daily for the following 6 days, totaling 7 times.
as §2

Series [4] can be described thus: Toxicity on consecutive oral administration to mice. The format is in vivo. The settings on record: orally administered consecutively at 25 mg/kg for 2 weeks.
In series [5] the test system is Aspergillus fumigatus IFM46895. Particulars: general statement ("as usual"); cited from earlier work.

As for `OC(Cn1cncn1)(Cn1cncn1)c1ccc(F)cc1F` [FLCZ, fluconazole], the figures for the Survival rate in series [1] (FLCZ 20 mg/kg orally), in series [2] (FLCZ 0.25 mg/kg orally) and in series [2] (FLCZ 0.5 mg/kg orally) were 20, 20 and 40, respectively.

As to `CCCCOC(=O)N=C(N)c1ccc(OCCCC2CCN(CCCOc3ccc(C(N)=NC(=O)OCCCC)cc3)CC2)cc1` [Test compound, 4-{3-[4-(3-{4-[amino(butoxycarbonylimino)methyl]phenoxy}propyl)-1-piperidinyl]propoxy}-N′-(butoxycarbonyl)benzamidine], the Survival rate in series [3] (test compound 1 mg/kg orally) worked out at 0; in series [3] (test compound 3 mg/kg orally), 20; in series [1] (test compound 1 mg/kg orally) it was 0; in series [2] (test compound 0.5 mg/kg orally), 0. Moreover, the Toxicity result in series [4] is “did not show toxicity at all”.

In series [2] (AMPH-B 0.1 mg/kg subcutaneously), `C[C@@H]1[C@H](O)[C@@H](C)/C=C/C=C/C=C/C=C/C=C/C=C/C=C/[C@H](O[C@@H]2O[C@H](C)[C@@H](O)[C@H](N)[C@@H]2O)C[C@@H]2O[C@](O)(C[C@@H](O)C[C@@H](O)[C@H](O)CC[C@@H](O)C[C@@H](O)CC(=O)O[C@H]1C)C[C@H](O)[C@H]2C(=O)O` [AMPH-B, amphotericin B] came in with a Survival rate of 20.

With `C[C@@H](c1ncncc1F)[C@](O)(Cn1cncn1)c1ccc(F)cc1F` [VCZ, voriconazole], the Survival rate in series [3] (VCZ 10 mg/kg orally) was 0.

Turning to `Nc1[nH]c(=O)ncc1F` [Example 5-FC, flucytosine], the Survival rate in series [3] (5-FC 250 mg/kg orally) amounted to 0. In series [3] (murine systemic infection, flucytosine 250 mg/kg administered singly), the Therapeutic effect result is listed as “no therapeutic effect”. Further, the “Effect against Aspergillus fumigatus” value in series [5] is “almost no effect”.

In the case of `CCCCCOc1ccc(-c2cc(-c3ccc(C(=O)N[C@H]4C[C@@H](O)[C@@H](O)NC(=O)[C@@H]5[C@@H](O)[C@@H](C)CN5C(=O)[C@H]([C@H](O)CC(N)=O)NC(=O)[C@H]([C@H](O)[C@@H](O)c5ccc(O)c(OS(=O)(=O)O)c5)NC(=O)[C@@H]5C[C@@H](O)CN5C(=O)[C@H]([C@@H](C)O)NC4=O)cc3)no2)cc1` [MCFG, micafungin] (X1-[Orn(4R-OH,5R-OH)]T[Hyp][hTyr(3S-OH,4S-OH,3'-OSO3H)][Gln(3R-OH)][Pro(3S-OH,4S-Me)]; lactam 1-C), the Survival rate in series [2] (MCFG 0.125 mg/kg subcutaneously) was determined as 0; in series [2] (MCFG 0.25 mg/kg subcutaneously), 40.

The values above are taken from US8173157B2, “Pharmaceutical composition comprising phenylamidine derivative and method of using the pharmaceutical composition in combination with antifungal agent” (Toyama Chemical Co., Ltd., priority 2006, dated 2012).
